Key:
[1] = Stability of the product aqueous suspension against precipitation; type: physicochemical; conditions: for time until precipitation appeared in the suspension: receiving solution neat water
Experimental: (§1) A system similar to that illustrated in FIG. 1 was utilized to form aqueous suspensions of Ibuprofen particles. Specifically, a solution (0.25 mg/mL) of Ibuprofen (available from Sigma-Aldrich Corporation) in liquid carbon dioxide (high-purity, SFC grade obtained from Air Products Corporation) was prepared in the syringe pump 10. The solution was pushed through the heating unit 14 to reach the desired supercritical temperature of 40° C. before reaching the expansion nozzle 16. The rapid expansion was carried out at a pre-expansion pressure of 200 bar through a 50 μm orifice into an aqueous solution. FIG. 2A is an SEM analysis of the precipitate obtained when the receiving solution in the expansion chamber 18 was neat water.

[2] = Statistical analysis of SEM images of nanoparticles in the product aqueous suspension; type: physicochemical; conditions: for average nanoparticle size: Ibuprofen
Experimental: as §1, with “A specimen” for “FIG. 2A is an SEM analysis”, “product suspension was prepared for SEM imaging by depositing a few drops of the dilute nanoparticle aqueous suspension onto a carbon tape, followed by drying under ambient condition and then coating with platinum before imaging. SEM images were” for “precipitate”, “on a Hitachi S-4700 Field-Emission SEM system.” for “when the receiving solution in the expansion chamber 18 was neat water.”

time until precipitation appeared in the suspension [1] [min] | average size in diameter ([2]; Naproxen nanoparticles, 2 wt % methanol co-solvent, receiving solution 0.5 mg/mL PVP (Mw≈40,000)) [nm] | stability of product suspension ([1]; receiving solution aqueous SDS, 3.3 mg/mL) | change in nanoparticle size on increase of drug loading and PVP concentration ([2]; Ibuprofen loading 0.25 to 0.83 mg/mL, PVP concentration 0.5 to 3.3 mg/mL) | average size in diameter ([2]; Ibuprofen nanoparticles, receiving solution aqueous PVP (Mw≈40,000), pre-expansion 40° C., 200 bar) [nm] | average size in diameter ([2]; Ibuprofen nanoparticles, receiving solution aqueous SDS, 3.3 mg/mL) [nm] | average nanoparticle size ([2]; PVP receiving solution, pre-expansion temperature 120° C.) [nm] | average nanoparticle size ([2]; high-molecular weight PVP (Mw≈360,000)) [nm] | change in average particle size on variation of drug/polymer weight ratio ([2]; PVP, drug/polymer weight ratio varied from 0.3 to 4 (Ibuprofen) or 0.3 to 2 (Naproxen)) | SMILES | stability of product suspension ([1]; receiving solution aqueous PVP (Mw≈40,000))
≤ 15 | 64 | – | – | – | – | – | – | – | COc1ccc2cc([C@H](C)C(=O)O)ccc2c1 [Naproxen] | –
≤ 15 | – | remained stable without precipitation | no significant changes | 40 | 25 | 52 | 30 | no significant changes | CC(C)Cc1ccc(C(C)C(=O)O)cc1 (centres unmarked) [Ibuprofen] | no sign of instability after several days

Reference: US7754243B2, “Aqueous suspension of nanoscale drug particles from supercritical fluid processing” (Clemson University Research Foundation, priority 2004, dated 2010)
